Each block holds one molecule with its values, some of them ahead of it. The source made the active and inactive calls.
Key:
[1] = molecular target: T1, Short transient receptor potential channel 4 (Mus musculus, UniProt Q9QUQ5); experiment: calcium entry via TRPC4 opening agents – cell-based, HEK293 TRPC4/mu-opioid, Fluo-4 calcium, dose response (AID 434937); type: functional
T1 sequence (Q9QUQ5 whole entry): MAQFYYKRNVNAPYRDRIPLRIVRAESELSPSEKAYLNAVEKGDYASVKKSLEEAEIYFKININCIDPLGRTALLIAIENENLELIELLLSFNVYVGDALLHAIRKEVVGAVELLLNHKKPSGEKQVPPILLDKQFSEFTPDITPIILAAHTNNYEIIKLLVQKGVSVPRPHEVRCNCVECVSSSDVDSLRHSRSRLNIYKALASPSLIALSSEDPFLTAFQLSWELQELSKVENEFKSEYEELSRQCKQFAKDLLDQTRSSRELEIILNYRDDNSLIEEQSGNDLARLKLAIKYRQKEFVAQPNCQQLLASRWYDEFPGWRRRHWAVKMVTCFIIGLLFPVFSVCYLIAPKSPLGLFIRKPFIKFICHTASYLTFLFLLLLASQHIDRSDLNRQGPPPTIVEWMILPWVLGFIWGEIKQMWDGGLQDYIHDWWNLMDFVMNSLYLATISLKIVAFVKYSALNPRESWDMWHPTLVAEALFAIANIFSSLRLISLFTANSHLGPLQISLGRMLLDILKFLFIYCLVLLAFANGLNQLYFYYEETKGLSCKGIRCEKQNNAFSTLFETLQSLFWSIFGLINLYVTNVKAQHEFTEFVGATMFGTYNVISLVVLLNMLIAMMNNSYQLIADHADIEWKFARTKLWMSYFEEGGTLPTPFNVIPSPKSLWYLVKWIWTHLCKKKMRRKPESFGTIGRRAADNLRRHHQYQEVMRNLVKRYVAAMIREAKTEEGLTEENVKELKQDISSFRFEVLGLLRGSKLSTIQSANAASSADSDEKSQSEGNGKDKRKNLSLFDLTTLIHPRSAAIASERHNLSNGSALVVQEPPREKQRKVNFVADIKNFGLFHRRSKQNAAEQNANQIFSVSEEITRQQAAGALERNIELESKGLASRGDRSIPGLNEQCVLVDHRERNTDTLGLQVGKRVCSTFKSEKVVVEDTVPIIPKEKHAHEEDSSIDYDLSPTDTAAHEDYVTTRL

HEK293 [2] = experiment: inhibition of NOD1-driven NF-kB reporter – cell-based, luminescence, uHTS, primary screen (AID 1578); type: functional; settings: Homo sapiens
HEK293 [3] = experiment: cells; type: functional, cell-based; settings: Homo sapiens
HEK293 [4] = experiment: cells; type: functional, cell-based; settings: Homo sapiens; remark: listed apart in the source
HEK293 [5] = experiment: NOD2 signaling inhibitors in MDP-stimulated cells, cell-based, uHTS, luminescence (AID 2001); type: functional; settings: Homo sapiens
[6] = blockers of HIV-1 envelope-mediated cell-cell fusion – cherry-pick, dose response (AID 652057); type: functional, cell-based
[7] = HIV-1 AD8 envelope cell-cell fusion blockers – cherry-pick, dose response (AID 652062); type: functional, cell-based;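 note: luciferase signal from cell-cell fusion driven by HIV-1 clade B AD8 Env; potency is for inhibitors of fusion seen as a drop in luminescence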
H9c2 = experiment: cells; type: functional, cell-based; settings: Rattus norvegicus, H9c2, Myocardium;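 note: confirmatory concentration-response retest of ultra-high-throughput screening hits for modulation of myocardial damage; cell death induced by hydrogen peroxide oxidative stress; compound pretreatment for 60 min then peroxide exposure for 2 h; potency is for protecting the cells against peroxide damage rather than for killing them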
[8] = molecular target: Protein-tyrosine kinase 2-beta (Homo sapiens, UniProt Q14289);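 note: potency of inhibitors of PYK2 kinase phosphorylation of poly-GT substrate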
Chain of Protein-tyrosine kinase 2-beta (Q14289 whole entry): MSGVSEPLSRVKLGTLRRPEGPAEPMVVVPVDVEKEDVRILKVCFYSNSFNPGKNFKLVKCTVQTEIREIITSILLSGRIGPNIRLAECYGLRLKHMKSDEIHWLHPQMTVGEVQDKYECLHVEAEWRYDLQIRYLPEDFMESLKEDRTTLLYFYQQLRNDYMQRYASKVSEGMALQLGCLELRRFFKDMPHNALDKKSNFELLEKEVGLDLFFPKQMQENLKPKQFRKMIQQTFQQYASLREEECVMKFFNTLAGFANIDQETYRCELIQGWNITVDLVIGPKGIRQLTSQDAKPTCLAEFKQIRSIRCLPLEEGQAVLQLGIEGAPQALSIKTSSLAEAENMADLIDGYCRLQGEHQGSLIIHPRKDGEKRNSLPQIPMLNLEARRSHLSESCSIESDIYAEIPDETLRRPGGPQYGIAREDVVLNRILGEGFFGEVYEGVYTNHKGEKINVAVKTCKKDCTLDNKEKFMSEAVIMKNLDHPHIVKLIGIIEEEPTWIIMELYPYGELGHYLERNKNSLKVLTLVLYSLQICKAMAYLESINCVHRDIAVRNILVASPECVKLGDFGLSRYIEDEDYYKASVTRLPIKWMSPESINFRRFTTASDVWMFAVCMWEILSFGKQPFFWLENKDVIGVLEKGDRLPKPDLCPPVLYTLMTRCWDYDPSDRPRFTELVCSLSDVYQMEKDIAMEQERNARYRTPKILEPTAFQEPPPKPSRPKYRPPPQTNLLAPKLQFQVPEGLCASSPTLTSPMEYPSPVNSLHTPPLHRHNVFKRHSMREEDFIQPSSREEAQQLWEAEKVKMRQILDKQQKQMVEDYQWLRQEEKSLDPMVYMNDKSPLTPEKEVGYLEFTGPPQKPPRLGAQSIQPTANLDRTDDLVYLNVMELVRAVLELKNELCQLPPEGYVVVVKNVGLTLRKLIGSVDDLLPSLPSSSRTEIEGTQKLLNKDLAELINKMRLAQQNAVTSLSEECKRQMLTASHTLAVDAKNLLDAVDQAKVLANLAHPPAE

[9] = molecular target: T2, High affinity choline transporter 1 (Homo sapiens, UniProt Q9GZV3); experiment: human choline transporter blockers, potency – cell-based, 5-point CRC, membrane potential dye, dose response (AID 504840); type: functional
T2 sequence (Q9GZV3 whole entry): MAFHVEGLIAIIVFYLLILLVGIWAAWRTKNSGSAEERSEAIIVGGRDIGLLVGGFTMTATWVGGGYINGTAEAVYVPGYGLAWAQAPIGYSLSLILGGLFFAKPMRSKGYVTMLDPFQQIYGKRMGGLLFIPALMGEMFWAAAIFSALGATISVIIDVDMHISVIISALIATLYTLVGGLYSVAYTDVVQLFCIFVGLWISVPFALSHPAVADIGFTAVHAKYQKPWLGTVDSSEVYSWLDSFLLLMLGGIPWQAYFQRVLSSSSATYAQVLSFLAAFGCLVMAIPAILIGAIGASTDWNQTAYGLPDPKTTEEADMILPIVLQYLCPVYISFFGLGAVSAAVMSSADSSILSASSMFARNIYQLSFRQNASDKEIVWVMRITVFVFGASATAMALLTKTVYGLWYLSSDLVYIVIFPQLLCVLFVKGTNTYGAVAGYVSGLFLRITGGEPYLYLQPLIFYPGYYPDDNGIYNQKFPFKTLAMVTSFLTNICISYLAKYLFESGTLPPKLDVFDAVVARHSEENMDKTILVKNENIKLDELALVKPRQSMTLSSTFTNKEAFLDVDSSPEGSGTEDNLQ

[10] = blockers of bursicon-stimulated LGR2 cAMP reporter – cell-based, HEK293, CRE-luciferase reporter, cherry pick, set 2, dose response (AID 743343); type: functional;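 note: transfected cells were stimulated with diluted bursicon conditioned medium after compound addition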
[11] = blockade of melanocortin 4 receptor signaling – cell-based, plate reader, cherry pick, counter-screen for LGR2 antagonist project, dose response (AID 743444); type: functional;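 note: transfected HEK 293 cells stimulated with alpha-MSH peptide; potency of inhibitors of the alpha-MSH evoked signal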
Large T antigen = Large T antigen (Simian virus 40, UniProt P03070); type: functional, Betapolyomavirus macacae;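 note: Confirmatory-stage PubChem screen for compounds that inhibit SV40 T antigen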
Chain of Large T antigen (P03070 whole entry): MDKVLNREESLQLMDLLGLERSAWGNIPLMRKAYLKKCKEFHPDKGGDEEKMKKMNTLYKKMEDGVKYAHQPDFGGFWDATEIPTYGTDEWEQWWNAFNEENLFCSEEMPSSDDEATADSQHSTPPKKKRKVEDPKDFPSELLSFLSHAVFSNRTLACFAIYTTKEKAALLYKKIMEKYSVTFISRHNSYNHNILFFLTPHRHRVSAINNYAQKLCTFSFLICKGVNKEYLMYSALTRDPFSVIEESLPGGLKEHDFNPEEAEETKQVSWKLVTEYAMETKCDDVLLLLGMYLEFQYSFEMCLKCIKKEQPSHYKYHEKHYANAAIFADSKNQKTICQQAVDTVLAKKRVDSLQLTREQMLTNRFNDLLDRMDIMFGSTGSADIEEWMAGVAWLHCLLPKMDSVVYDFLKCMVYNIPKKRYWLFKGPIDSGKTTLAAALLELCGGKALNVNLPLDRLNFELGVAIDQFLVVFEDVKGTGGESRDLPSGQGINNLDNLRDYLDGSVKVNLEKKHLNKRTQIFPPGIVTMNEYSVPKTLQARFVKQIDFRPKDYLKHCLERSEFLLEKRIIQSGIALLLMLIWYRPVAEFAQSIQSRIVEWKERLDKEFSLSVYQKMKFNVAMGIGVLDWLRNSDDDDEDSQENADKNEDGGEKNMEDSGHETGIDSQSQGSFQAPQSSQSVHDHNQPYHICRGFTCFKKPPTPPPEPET

- EC50 [1]: 0.133 µM (active)
Structure (SMILES): CCn1c(N2CCN(Cc3ccc([N+](=O)[O-])cc3)CC2)nc2ccccc21

Structure (SMILES): O=[N+]([O-])c1ccc(N2CCNCC2)c(Cl)c1
- EC50 [1]: 0.596 µM (active)

Structure (SMILES): Cc1nc(C)c(-c2ccc(SCC(=O)Nc3cccc(Cl)c3)nn2)s1
- EC50 (HEK293 [2]): > 20 µM (inactive)
- IC50 (HEK293 [3]): 4.18 µM (active)
- IC50 (HEK293 [4]): > 20 µM (inactive)
- IC50 (HEK293 [5]): 4.58 µM (active)

Structure (SMILES): N#Cc1ccc(CN2CCN(C(=O)CNC(=O)Cc3cccc4ccccc34)CC2)cc1
- AC50 [6]: 57.1 µM (active)
- AC50 [7]: 10.3 µM (active)

- EC50 [1]: 0.0133 µM (active)
Structure (SMILES): CCC(=O)N1CCc2cc(Br)cc(S(=O)(=O)NCCCN(CC)Cc3ccccc3)c21

Structure (SMILES): O=c1[nH]c2ccccc2c2ccccc12
- IC50 (H9c2): > 79 µM (inactive)

- IC50 [8]: 16.4 µM (not active)
Structure (SMILES): COc1cc(C2Nc3ccc4ncccc4c3C3=C2C(=O)CC(C)(C)C3)cc(OC)c1O (configuration not stated)

- IC50 [9]: 1.26 µM (active)
Structure (SMILES): Cc1ccc(C(=O)NC2CCCCC2)cc1S(=O)(=O)N1CCCC1

- IC50 [9]: 12.6 µM (active)
Structure (SMILES): Cc1ccc2c(c1)c(CC(=O)Nc1ccc(C)c(F)c1)c(C(=O)O)n2C

Structure (SMILES): COCCCNc1ccn2nc(-c3ccccc3)cc2n1
- AC50 [10]: 7.19 µM (active)
- AC50 [11]: 6.82 µM (active)

Structure (SMILES): O=C(c1ccc2c3c(cccc13)CC2)C1CCCN(CC2CC2)C1 (configuration not stated)
- EC50 [1]: 0.841 µM (active)

- IC50 (Large T antigen): 30.3 µM (active)
- IC50 [8]: > 69.5 µM (not active)
Structure (SMILES): Cc1cc2cc3c(N)[nH]nc3nc2cc1C

Structure (SMILES): COc1ccc(NS(=O)(=O)c2ccc(N/N=C(\C)c3ccncc3)c([N+](=O)[O-])c2)cc1
- EC50 (HEK293 [2]): 4.33 µM (active)
- IC50 (HEK293 [3]): 3.9 µM (active)
- IC50 (HEK293 [4]): 17.8 µM (active)
- IC50 (HEK293 [5]): 2.11 µM (active)

Reference: ChEMBL document CHEMBL1201862, “PubChem BioAssay data set” (2004)
